Assay results published in patent US20140336135A1, “NOVEL USE OF RHODODENDRIN” (Catholic University Industry Academy Cooperation Foundation, priority 2013, published 2014).

Columns and labels:
HaCaT cells [1] = test: ROS scavenging activity, ROS induced by TNF-α/IFN-γ (H2DCF-DA); assay type: cell-based, human
Experimental: HaCaT cells were seeded at a density of 3×10^5 cells/well in 6-well plates for 12 hours. Cells were washed with serum-free media, treated with 20 μm rhododendrin for 1 hour, and then stimulated with 10 ng/ml of TNF-α and 100 U/ml of […] for 3 hours. The cells were stabilized in Hanks' balanced salt solution (HBSS) for 30 minutes, stained with 10 μM 2′,7′-dichlorofluorescin diacetate (H2DCF-DA) at 37° C. for 30 minutes, and ROS signal was then analyzed with confocal microscopy with emission at 513 nm and excitation at 488 nm. Also, the fluorescence of the cells was measured with a microplate reader (Synergy, BIO TEK, US).

[2] = test system: Human keratinocyte HaCaT cells; test: Inhibition of intracellular ROS induced by UV irradiation (H2DCF-DA); assay type: cell-based; conditions: 20 μM rhododendrin 1 hour, then 100 J/m^2 UV light
Experimental: Human keratinocyte HaCaT cells (obtained from professor N. Fusenig, Cancer Research, Germany) were placed in a 60-mm culture dish at a density of 5×10^5 cells (1×10^6 cells for a 100 mm culture dish), and then cultured in 10% FBS (fetal bovine serum)-containing DMEM (Dulbecco's modified Eagle's medium) for 24 hours.
After culture, the cells were treated with 20 μM rhododendrin for 1 hour, and then washed three times with PBS (phosphate buffered saline). To induce ROS (reactive oxygen species), the cells were irradiated with 100 J/m^2 of UV light from a UV lamp (FSX 24 T12/UVB/HO, Pansol™ USA). Immediately after UV irradiation, the cells were washed with PBS and cultured for 4 hours in 1% FBS-containing DMEM medium supplemented with […]. Then, the cells were treated with 25 μM DCFH-DA (2,7-dichlorofliuorescin diacetate) in HBSS (Hank's balanced salt solution, BioWhittaker, CAMBREX, USA) buffer for 30 minutes, and then washed three times with PBS. Next, the measurement of ROS production in the cells by H2DCF-DA staining was performed in the same manner as described in Example 3-1.

[3] = test system: mice having psoriasis induced by imiquimod; test: Inhibition of hyperkeratinization in imiquimod psoriasis-induced mouse model (histology, qRT-PCR); assay type: in vivo, mice (C57BL/6)
Experimental: Tissues were excised from mice having psoriasis induced by imiquimod, and then the effect of rhododendrin on the inhibition of hyperkeratinization in the tissues was examined by histological analysis and qRT (quantitative real-time)-PCR analysis.
Specifically, in order to induce psoriasis by imiquimod, the hairs on the back of 8-week-old mice (C57BL/6, Central Animal Laboratory Inc.) were removed by using hair removal cream. The back of the mice was pre-treated daily with 20 mM rhododendrin before 1 hour, and then imiquimod (3.125 mg) was applied to the back at an one-day interval for 7 days. On the last day of application, the tissues were collected.
Histological examination of the mice skin was performed in the following manner. The mouse skin tissues were fixed in PBS containing 4% paraformaldehyde for 24 hours, washed with tap water, dehydrated with ethanol, and then embedded in paraffin to make a paraffin block. The paraffin block was cut with a microtome into 4 μm-thick sections, which were then placed on a glass slide and treated with xylene to remove wax (paraffin). Then, the tissue sections were dehydrated with ethanol and stained with hematoxylin-eosin (H&E). Histological analysis was performed using a fluorescence attached microscope (Olympus, Japan).
RNA isolation and qRT (quantitative real-time)-PCR analysis were performed in the following manner. Total RNAs were isolated from the tissues using an RNeasy Mini Kit (Qiagen, Valencia, Calif., USA) according to the manufacturer's instructions, and then synthesized into cDNA using QuantiTect Reverse Transcription Kit (Qiagen) according to the manufacturer's instructions. qRT-PCR was performed using Rotorgene™6000 (Corbett life Science) with KAPA™SYBR FAST q-PCR Master Mix(2×) universal. The relative amount of mRNAs was determined by […] method using GAPDH as an internal control. PCR was performed under the following conditions: 95° C. for 5 min; 35 cycles, each consisting of 96° C. for 20 sec, 60° C. for 20 sec and 72° C. for 20 sec; and one cycle at 72° C. for 5 min.

TLR7 signaling = test: Effect on TLR7 signaling pathway in keratinocytes (Western blot, immunofluorescence); assay type: cell-based, human
Experimental: Keratinocytes were treated with imiquimod, and then TLR7 signaling in the cells was examined by Western blot analysis and immune fluorescence staining. The detailed experimental methods are as follows.
Primary keratinocytes collected from the foreskin of a healthy subject were cultured. Human keratinocytes were cultured in keratinocyte serum-free medium (K-SFM) supplemented with epidermal growth factor (EGF) and bovine pituitary extract (Gibco BRL, Rockville, Md.). When the cells reached to 70% confluency, the cells were washed twice with PBS and cultured in K-SFM for 24 hours. To induce the differentiation of the keratinocytes, 1.2 mM calcium was added to the cells which were then cultured for 1, 3, 7 and 14 days, respectively.
Western blot analysis was performed in the following manner. Serum-starved keratinocytes were treated with various concentrations of rhododendrin for 1 hour, and then stimulated by treatment with imiquimod for different time periods. The cell pellets were lysed in ice-cold RIPA buffer (Roche Applied Science, Indianapolis, Ind., USA) containing protease inhibitor cocktail at 4° C. for 30 minutes. Protein samples were isolated by SDS-PAGE (sodium dodecylsulfate-polyacrylamide gel electrophoresis) and analyzed by immunoblotting. Briefly, the protein on the SDS polyacrylamide gel was transferred to a nitrocellulose membrane (Amersham, UK). […] A signal was detected using X-ray film development or Image-Analyzer System (LAS-3000, Fujifilm, Japan) in a dark room.
In addition, the expression patterns of TLR7, NF-kB (a marker of TLR7) and caveolin (a marker of psoriasis) were analyzed by immunofluorescence in the following manner.
Primary keratinocytes (5×10^5 cells/well) were pre-treated with rhododendrin for 1 hour, and then stimulated with imiquimod for 1 hour. The signal of immunostained NF-kB p65 was analyzed by the method described in Y. Kim. et. al., Free Radical Biology and Medicine; 51(11): 1985-1995, 2011. […]

HaCaT cells [4] = test: Cytotoxicity of rhododendrin, MTT cell viability; assay type: cell-based, human; conditions: various concentrations, 24 hours
Experimental: HaCaT cells were purchased from CLS Cell Line Service GmbH (Eppelheim, Germany). HaCaT cells were seeded at a density of 2×10^4 cells/well in 96-well plates. After a 12 hours incubation, the cells were incubated with various concentrations of rhododendrin for 24 hours. Then, cells were incubated with 3-(4,5-dimethylthiaol-2-yl)-2,5-diphenyltetrazolium bromide (MTT) reagent for 2-4 hours at 37° C. To calculate cell viability, MTT signals were quantified with a microplate reader (BioTek, Winooski, Vt., USA) at wavelength of 540 nm.

Question: For `C[C@H](CCc1ccc(O)cc1)O[C@@H]1O[C@H](CO)[C@@H](O)[C@H](O)[C@H]1O` [rhododendrin, Rhododendrin], which “production of DCF-fluorescence (microplate reader)” value (HaCaT cells [1]; 20 μM rhododendrin, then TNF-α/IFN-γ, FIG. 3) is on record?
Answer: Its value is “decreased to that in the control group not treated with TNF-α/IFN-γ”.

Question: And the “ROS signal (H2DCF-DA fluorescence) by confocal microscopy” value (HaCaT cells [1]; 20 μm rhododendrin 1 hour, then 10 ng/ml TNF-α and 100 U/ml IFN-γ 3 hours, FIG. 2)?
Answer: Its value is “no fluorescence was detected”.

Question: What about the “ROS fluorescence by confocal microscopy” value ([2]; FIG. 4) of the same molecule?
Answer: Its value is “only very minute fluorescence spots were found”.

Question: And the “amount of DCF-fluorescence (microplate reader)” value ([2]; versus group not treated, FIG. 5)?
Answer: Its value is “significantly lower”.

Question: What about the “induction of psoriasis (visual observation of the back tissue)” value ([3]; 20 mM rhododendrin on the back daily 1 hour before imiquimod (3.125 mg), 7 days, FIGS. 6 to 8) of the same molecule?
Answer: Its value is “significantly decreased”.

Question: What about the “thickness of the epidermal and dermal layers” value ([3]; 20 mM rhododendrin topical, imiquimod 7 days, H&E histology, FIGS. 7, 8) of the same molecule?
Answer: The value was “a decrease in the thickness of the epidermal and dermal layers”.

Question: What about the “expression of TLR (mRNA, qRT-PCR) in skin tissue” value ([3]; 20 mM rhododendrin topical, imiquimod 7 days, versus control group, FIG. 9) of the same molecule?
Answer: The value was “significantly lower”.

Question: And the “activity of caveolin (marker of psoriasis)” value (TLR7 signaling; keratinocytes, imiquimod and 20 μM rhododendrin, fluorescence staining, FIG. 14)?
Answer: The value was “protected”.

Question: And the “activity of TLR7 (down signaling)” value (TLR7 signaling; primary keratinocytes pre-treated with rhododendrin 1 hour, then imiquimod, FIGS. 12 and 13)?
Answer: Its value is “inhibited”.

Question: And the “activity of NF-kB (marker of TLR7)” value (TLR7 signaling; primary keratinocytes pre-treated with rhododendrin 1 hour, then imiquimod, phospho-NF-kB p65 Western blot and p65 immunostaining, FIGS. 12 and 13)?
Answer: The value was “also inhibited”.

Question: What about the “cytotoxicity (cell viability, MTT)” value (HaCaT cells [4]) of the same molecule?
Answer: The value was “no cytotoxicity”.
